Tested on: GFP-FKHR fusion protein
Test: GFP-FKHR cellular localization in transfected PC-3 cells
Type: cell-based, human
Conditions: LY294002 50 μM 1 hour; sodium selenate or selenomethionine 0.5 mM 3 hours
Procedure: The day before transfection, 5×10^5 PC-3 cells were seeded in 24-well dishes and transiently transfected with 0.8 μg of pcDNA3-GFP-FKHRwt construct (kind gift Dr Bill Sellers, Dana-Farber Institute, Boston) using Lipofectamine 2000 (Invitrogen). Cells were permeabilized in 0.2% Triton X-100 and the nuclear contents stained with DAPI. Coverslips were mounted with fluorescent mounting medium (DAKO). The cellular distribution of green fluorescence was determined in dual fluorescent cells using a Leica epifluorescent microscope.
Reintroducing PTEN function in such cells induces translocation of FKHR to the nucleus eventually causing G1 arrest in PTEN-null cells (Nakamura et al 2000, supra).

## O=[Se](=O)(O)O [sodium selenate]
  relocalization of GFP-FKHR from the cytoplasm to the nucleus: marked relocalization
